The results in this text go back to ChEMBL document CHEMBL3853341, “Nuclear magnetic resonance studies reveal stabilization of parallel G-quadruplex DNA [d(T2G4T)]4 upon binding to protoberberine alkaloid coralyne” (Bioorg Med Chem Lett, 2016).

Assay [1] in a line: Binding affinity to [d(T2G4T)]4 G-quadruplex DNA (unknown origin) assessed as broadening of G3NH signal by measuring upfield shift at ligand:DNA molar ratio of 2 by 1D 1H NMR method.
Assay [2] can be described thus: Binding affinity to [d(T2G4T)]4 G-quadruplex DNA (unknown origin) assessed as diffusion coefficient of G3H8 proton signal at ligand:DNA molar ratio of 2 by NMR DOSY method.
Assay [3] in a line: Binding affinity to [d(T2G4T)]4 G-quadruplex DNA (unknown origin) assessed as broadening of G4NH signal by measuring upfield shift at ligand:DNA molar ratio of 2 by 1D 1H NMR method.
Assay [4] can be described thus: Binding affinity to [d(T2G4T)]4 G-quadruplex DNA (unknown origin) assessed as upfield shift in G4pG5 signal at ligand:DNA molar ratio of 0.25:1 to 2:1 by 1D 31P NMR method.
Assay [5] is described as follows: Binding affinity to [d(T2G4T)]4 G-quadruplex DNA (unknown origin) assessed as broadening of T2CH3 signal by measuring downfield shift at ligand:DNA molar ratio of 2 by 1D 1H NMR method.
Assay [6] is described as follows: Binding affinity to [d(T2G4T)]4 G-quadruplex DNA (unknown origin) assessed as formation of 3'-flanking guanine at ligand:DNA molar ratio of 2 by 2D 1H-1H NOESY NMR spectroscopy.
A short description of assay [7]: Binding affinity to [d(T2G4T)]4 G-quadruplex DNA (unknown origin) assessed as upfield shift in compound 1OCH3 signal at ligand:DNA molar ratio of 2 by 1D 1H NMR method.
The nature of assay [8]: Binding affinity to [d(T2G4T)]4 G-quadruplex DNA (unknown origin) assessed as change in intensity of negative band at 242 nanometer by circular dichroism method. (In general: CD spectra are sensitive to the conformation of chiral molecules.)
Assay [9] in a line: Binding affinity to [d(T2G4T)]4 G-quadruplex DNA (unknown origin) assessed as upfield shift in compound 15OCH3 signal at ligand:DNA molar ratio of 2 by 1D 1H NMR method.
Assay [10] is described as follows: Binding affinity to [d(T2G4T)]4 G-quadruplex DNA (unknown origin) assessed as diffusion coefficient of H1/H16 proton signal at ligand:DNA molar ratio of 2 by NMR DOSY method (reference value: 5.08 10^-10m2/sec).
The nature of assay [11]: Binding affinity to [d(T2G4T)]4 G-quadruplex DNA (unknown origin) assessed as broadening of G5NH signal by measuring upfield shift at ligand:DNA molar ratio of 2 by 1D 1H NMR method.
The nature of assay [12]: Binding affinity to deoxy(T2G4T)]4 G-quadruplex DNA (unknown origin) assessed as G3NH/G6NH signal by measuring melting temperature by 1H NMR spectroscopy.
Assay [13] in a line: Binding affinity to [d(T2G4T)]4 G-quadruplex DNA (unknown origin) assessed as upfield shift in compound 16OCH3 signal at ligand:DNA molar ratio of 2 by 1D 1H NMR method.
Assay [14] can be described thus: Binding affinity to [d(T2G4T)]4 G-quadruplex DNA (unknown origin) assessed as broadening of T7CH3 signal by measuring downfield shift at ligand:DNA molar ratio of 2 by 1D 1H NMR method.
Assay [15] in a line: Binding affinity to [d(T2G4T)]4 G-quadruplex DNA (unknown origin) assessed as downfield shift in T2pG3 signal at ligand:DNA molar ratio of 0.25:1 to 2:1 by 1D 31P NMR method.
A short description of assay [16]: Binding affinity to [d(T2G4T)]4 G-quadruplex DNA (unknown origin) assessed as downfield shift in G6pT7 signal at ligand:DNA molar ratio of 0.25:1 to 2:1 by 1D 31P NMR method.
The nature of assay [17]: Binding affinity to [d(T2G4T)]4 G-quadruplex DNA (unknown origin) assessed as change in intensity of positive band at 264 nanometer by circular dichroism method.
Assay [18] can be described thus: Binding affinity to [d(T2G4T)]4 G-quadruplex DNA (unknown origin) assessed as upfield shift in G5pG6 signal at ligand:DNA molar ratio of 0.25:1 to 2:1 by 1D 31P NMR method.
A short description of assay [19]: Binding affinity to [d(T2G4T)]4 G-quadruplex DNA (unknown origin) assessed as broadening of G6NH signal by measuring upfield shift at ligand:DNA molar ratio of 2 by 1D 1H NMR method.
Assay [20] in a line: Binding affinity to deoxy(T2G4T)]4 G-quadruplex DNA (unknown origin) assessed as formation of negative induced CD band at 25 uM by […].
Assay [21] is described as follows: Binding affinity to [d(T2G4T)]4 G-quadruplex DNA (unknown origin) assessed as upfield shift in compound 5OCH3 signal at ligand:DNA molar ratio of 2 by 1D 1H NMR method.
Assay [22] is described as follows: Binding affinity to [d(T2G4T)]4 G-quadruplex DNA (unknown origin) assessed as broadening of T7H6 signal by measuring downfield shift at ligand:DNA molar ratio of 2 by 1D 1H NMR method.
A short description of assay [23]: Binding affinity to [d(T2AG3T)]4 G-quadruplex DNA (unknown origin) containing human telomeric repeat assessed as increase in melting temperature by NMR spectroscopic analysis.

Molecules are shown by their SMILES. Active and inactive are the calls of the source. The calls are words filed in the database; no cut-off is given here.

Consider `COc1cc2cc3c4cc(OC)c(OC)cc4cc[n+]3c(C)c2cc1OC`, for which the Activity was determined as 0.54 ppm in [1]; 0.37 ppm in assay [3]; 0.12 ppm in [4]; 0.17 ppm in assay [5]; 0.49 ppm in assay [7]; 0.46 ppm in assay [9]. The Activity was found to be 0.38 ppm in assay [11]; 0.61 ppm in assay [13]; 0.22 ppm in assay [14]; 0.28 ppm in [15]; 0.27 ppm in [16]; 0.12 ppm in assay [18]. Moreover, the Activity is 0.8 ppm in [19], 0.72 ppm in [21] and 0.33 ppm in assay [22]. In addition, the figures for the D in assay [2] and in assay [10] were 3.26 ×10⁻¹⁰ m2/s and 3.31 ×10⁻¹⁰ m2/s, respectively. For the same compound, the outcome in assay [6], in assay [8], in assay [17] and in [20] was Active. Besides, in assay [12], the thermal shift (ΔTm) is above 20 °C.
With `O=c1c(O)c(-c2ccc(O)c(O)c2)oc2cc(O)cc(O)c12`, the shift in melting temperature (ΔTm) in [23] is 20 °C.
Consider `Cc1cc2c3c([n+](C)c4ccc(F)cc4c3c1)-c1cc(F)ccc1N2C`, for which the thermal shift (ΔTm) in [23] amounted to 20 °C.

As usually defined, the ΔTm is the shift of the melting midpoint relative to a reference.
